Measurements as given in patent publication US8802164B2 (Oryza Oil & Fat Chemical Co., Ltd., priority 2003, dated 2014).
Converted amounts (≈) assume the structure as drawn.

Experiments:
[1] = Diet effect on weight gain and body fat accumulation, mice fed sample-mixed food for 13 days; format: in vivo; conditions: mice ddY, sample mixed in food; for effect on accumulation of epididymal fat and perinephric fat weight: 13 days, FIG. 2; for effect on the weight gain: free feeding 13 days, extract 0.5/1.0 wt %, caffeine 0.05/0.1 wt %, chlorogenic acid 0.15/0.3 wt %, FIG. 1
Description: The weight of each mouse was measured every other day during the feeding period, and the weight of the epididymal fat of each mouse on the last day of the feeding period. There was little difference in intake of the food among the control group (for only normal food given) and individual sample administration groups.

α-glucosidase = assay: α-Glucosidase inhibitory activity; format: biochemical, rat; conditions: for IC50: rat small intestine acetone powder enzyme, 4-methylumbelliferyl-α-D-glucopyranoside 0.05 mM, 37° C., 30 minutes; for inhibitory activity of α-glucosidase (in words): rat small intestine enzyme, Chart 2
Description: The test method is herein described. First of all, mix the acetone powder of the rat small intestine with the pH7.0. 0.1M phosphate buffer solution (product of […] JAPAN K.K), which is approx. 10 times as much as the volume of the acetone powder, and obtain the enzyme liquid from the centrifuged supernatant. Use the 0.2 mM 4-methyl umbel […]-gluco-pyranoside ([…] JAPAN K.K) as a substrate. After dissolving each sample in the DMSO, prepare the two-fold dilution series with the 4% DMSO containing phosphate buffer solution. The diluted solution (50 μL/well) and buffered substrate (25 μL/well) are mixed in a microplate, and after preheating it at 37° C. for 10 minutes, add the enzyme liquid (25 μL/well) to induce the reaction at 37° C. for 30 minutes (final concentration of enzyme: 1 mg protein mL, final concentration of substrate: 0.05 mM). Then, add the 0.2M Na2CO3 (100 μL/well) to stop the reaction. Measure the fluorescence intensity (excitation wavelength: 366 nm, determined wavelength: […]) using a microplate reader.

[2] = system: mouse adipose cell line (3T30L1); assay: Effect on fat accumulation and differentiation of 3T3-L1 adipocytes; format: cell-based; conditions: 3T3-L1 after differentiation induction, 6 days with sample; FIG. 6
Description: The test method is herein described. Cultivate the 3T30L1 adipose cell (5×10^4 cells/mL) in DMEM medium (high glucose) including fetal calf serum (10 wt %) for two days. Then, replace the medium with a different type of medium containing insulin ([…]), dexamethasone (0.25 μM) and isobutyl methyl xanthin (0.5 mM) for the differentiation induction. Two days later, replace the medium again with the different medium containing the samples and insulin (1 μg/mL), and cultivate them for six days replacing the medium every other day. After completing the cultivation, analyze the glycerol 3-phosphate dehydrogenase (GPDH) activity which is to be an indicator of the concentration of triglyceride in the cell and adipocyte differentiation.

pancreatic lipase = molecular target: T1, pancreatic lipase (Sus scrofa, UniProt P00591); assay: Pancreatic lipase inhibitory activity (in vitro); format: biochemical; conditions: swine pancreatic lipase 105.8 units/mL; FIG. 5
T1 construct: purchased SIGMA ADLRICH JAPAN K.K
T1 sequence (P00591 1-450): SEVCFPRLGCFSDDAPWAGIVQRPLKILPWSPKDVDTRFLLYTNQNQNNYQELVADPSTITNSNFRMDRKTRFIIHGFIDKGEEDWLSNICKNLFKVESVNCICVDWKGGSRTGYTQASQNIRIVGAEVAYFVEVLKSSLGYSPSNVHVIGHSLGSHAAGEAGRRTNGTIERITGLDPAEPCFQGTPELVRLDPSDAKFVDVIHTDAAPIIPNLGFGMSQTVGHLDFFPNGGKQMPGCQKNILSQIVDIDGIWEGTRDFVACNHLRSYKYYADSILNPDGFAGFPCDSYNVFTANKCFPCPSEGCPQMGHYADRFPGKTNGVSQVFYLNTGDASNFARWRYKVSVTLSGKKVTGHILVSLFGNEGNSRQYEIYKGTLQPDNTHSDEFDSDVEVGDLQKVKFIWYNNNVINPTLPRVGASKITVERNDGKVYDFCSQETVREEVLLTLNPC
Description: The lipase inhibitory activity was analyzed by using a pancreatic lipase (product of […] JAPAN K.K, final concentration 105.8 units/mL) derived from the swine and a lipase kit-s (Dainippon Pharmaceutical Co., Ltd.).

[3] = Hypotriglyceridemic action in blood of food-deprived mice; format: in vivo; conditions: 24-hour food-deprived mice, single oral dose, blood every hour; FIG. 9
Description: Then the effects on the blood triglyceride level are observed. The test method is herein described. First of all, take a blood sample from the veins of the 24-hour food-deprived mice (ddy. Male, 6-week-old). Half an hour later, orally apply each sample (10 mL./kg) suspended with the gum […] of 5 w/v % to the mice. Then, take a blood sample from the mice every one hour, and measure the blood triglyceride levels. Under the same condition, measure the blood triglyceride levels of the mice as a control, in which only gum […] orally administered.

[4] = Suppressive effect on fatty liver (hepatic triglyceride and total cholesterol); format: in vivo; conditions: mice, oral once a day for two weeks; FIG. 7
From the text: The test method is herein described. Keep the mice (ddY, male, 5-week-old) in the laboratory for one week. Then, divide them into four groups and orally administer the samples suspended in the gum […] %) once a day for two weeks. On the final day of the test, remove the livers from the non-food-derived mice, and measure the amount of liver triglyceride and total cholesterol contained therein by using the test kit of Wako Pure Chemical Industries Ltd. of Japan.

epididymal fat = assay: Lipolysis effect, glycerol release of epididymal fat (in vitro); format: cell-based, rats; conditions: rat epididymal fat, 37° C., three hours; extract at 1000 μg/mL; FIG. 8
Description: The test method is herein described. Remove the epididymal fat from male Wister rats, and incubate the fat in each sample solved in Medium 199 (medium culture) at a temperature of 37° C. for three hours. After completing the incubation, remove the fat and measure the amount of glycerol in the medium by using F-kit glycerol (product of Nippon Roche).

[5] = Four-day weight gain test with existing dietetic materials (Chart 1); format: in vivo; conditions: mice, sample mixed in food
Description: Salacia extract can be obtained by extracting the salacia root with solvent. Evening primrose extract can also be obtained by extracting the evening primrose with solvent. As a test method, as shown in Chart 1, a four-day experiment was conducted with the mice (ddY, male, 5-week-old) to freely eat the food (CE-2, CLEA Japan, Inc.) mixed with the sample as indicated in Chart 1. The weight of each mouse was measured on the first day and on the final day of the experimental period.

| SMILES | effect on accumulation of epididymal fat and perinephric fat weight [1] | effect on the weight gain [1] | IC50 (α-glucosidase) [µg/mL] | inhibitory activity of α-glucosidase (in words) (α-glucosidase) | effect on the GPDH activity [2] | effect on the fat accumulation (triglyceride accumulation) [2] | pancreatic lipase inhibitory activity (pancreatic lipase) | lowering effect on the blood-triglyceride [3] | effect on liver triglyceride [4] | liver total cholesterol value [4] | lipolysis effect (glycerol release) (epididymal fat) | Weight (g) 4th day ([5]; 4th day, average ± standard error, n = 5) [g] | Difference in the weight compared to the control ([5]; four days) [g] | Weight increase ([5]; four days) [g] |
| --- | --- | --- | --- | --- | --- | --- | --- | --- | --- | --- | --- | --- | --- | --- |
| Cn1c(=O)c2c(ncn2C)n(C)c1=O [Caffeine, caffeine] | slightly indicates a suppressive effect on the accumulation of the fat | do not have a sufficient suppressive effect on the weight gain | >1000 | does not indicate the inhibitory activity | mild inhibitory effect on the GPDH activity | mild inhibitory effect on the fat accumulation | indicate a pancreatic lipase inhibitory activity | strong lowering effect on the blood-triglyceride | strong effect | almost the same as the value of the control group | – | – | – | – |
| O=C(/C=C/c1ccc(O)c(O)c1)O[C@@H]1C[C@](O)(C(=O)O)C[C@@H](O)[C@H]1O [Chlorogenic acid, chlorogenic acid] | slightly indicates a suppressive effect on the accumulation of the fat | do not have a sufficient suppressive effect on the weight gain | – | strong inhibitory activity of α-glucosidase | mild inhibitory effect on the GPDH activity | mild inhibitory effect on the fat accumulation | indicate a pancreatic lipase inhibitory activity | lowering effect on the blood-triglyceride identical to the effect of synephrine | strong effect | almost the same as the value of the control group | mild lipolysis effect | – | – | – |
| O=C(O)/C=C/c1ccc(O)c(O)c1 [Coffeic acid] | – | – | 100 (≈ 0.555 mM) | strong inhibitory activity of α-glucosidase | – | – | – | – | – | – | – | – | – | – |
| O=C(O)[C@]1(O)C[C@@H](O)[C@@H](O)[C@H](O)C1 [Quinic acid, quinic acid] | – | – | >1000 | does not indicate the inhibitory activity | – | – | – | – | – | – | – | – | – | – |
| c1cc2c(cc1[C@H]1OC[C@H]3[C@@H]1CO[C@@H]3c1ccc3c(c1)OCO3)OCO2 [Sesamine, sesamine] | – | – | – | – | – | – | – | – | – | – | – | 30.91 ± 1.79 | -0.83 | 3.55 |
